Square brackets hold non-standard residues; d marks the D form. Peptide text beside a SMILES is read from it. * marks the point of attachment. ξ: configuration not given here. Pro(cis-4-CF3) = O=C(O)[C@@H]1C[C@H](C(F)(F)F)CN1; Oic(3aξ,7aξ) = O=C(O)[C@@H]1CC2CCCCC2N1; Pro(4R-NH2) = N[C@H]1CN[C@H](C(=O)O)C1; ΔZArg = N=C(N)NCC/C=C(\N)C(=O)O; aThr = C[C@H](O)[C@H](N)C(=O)O; dOrn = NCCC[C@@H](N)C(=O)O; Pip = O=C(O)[C@@H]1CCCCN1; Orn = NCCC[C@H](N)C(=O)O; Dab = NCC[C@H](N)C(=O)O; NH(CH2)5NH2 = NCCCCCN*; NH(CH2)4NH2 = NCCCCN*; ξAze = O=C(O)C1CCN1; NHOH = ON*
Assays:
Test in all cases: MIC, broth microdilution (CLSI), reference strain
Details in all cases: CAMHB
[1] = test system: Staphylococcus aureus ATCC 13709
[2] = test system: Escherichia coli ATCC 25922
[3] = test system: Pseudomonas aeruginosa ATCC 27853
[4] = test system: Acinetobacter baumannii ATCC 19606

| Compound | Sa: MIC Staphylococcus aureus ATCC 13709 [1] | Ec: MIC Escherichia coli ATCC 25922 [2] | Pa: MIC Pseudomonas aeruginosa ATCC 27853 [3] | Ab: MIC Acinetobacter baumannii ATCC 19606 [4] |
| --- | --- | --- | --- | --- |
| C[C@H](NC(=O)[C@H](CCN)NC(=O)[C@@H](N)CCCCN)C(=O)NCC(=O)N[C@H](CCCN)C(=O)N1CCC[C@H]1C(=O)N[C@@H](Cc1cnc[nH]1)C(=O)N[C@@H](CCCCN)C(=O)N/C(=C\CCNC(=N)N)C(=O)N[C@@H](CCCCN)C(N)=O [14.12] (H-K[Dab]AG[dOrn]PHK[ΔZArg]K-NH2) | ++ (≤8 μg/mL) | + (≤32 μg/mL) | − (>32 μg/mL) | − (>32 μg/mL) |
| C[C@H](NC(=O)[C@H](CCN)NC(=O)[C@@H](N)CCCCN)C(=O)NCC(=O)N[C@H](CCCN)C(=O)N1CCC[C@H]1C(=O)N[C@@H](Cc1cnc[nH]1)C(=O)N[C@@H](CCCCN)C(=O)N/C(=C\CCNC(=N)N)C(=O)N[C@@H](CCCCN)C(=O)NO [14.14] (H-K[Dab]AG[dOrn]PHK[ΔZArg]K-{NHOH}) | ++ (≤8 μg/mL) | − (>32 μg/mL) | − (>32 μg/mL) | − (>32 μg/mL) |
| C[C@H](NC(=O)[C@H](CCN)NC(=O)[C@@H](N)CCCCN)C(=O)NCC(=O)N[C@H](CCCN)C(=O)N1C[C@@H](C(F)(F)F)C[C@H]1C(=O)N[C@@H](Cc1cnc[nH]1)C(=O)N[C@@H](CCCCN)C(=O)N/C(=C\CCNC(=N)N)C(=O)N[C@@H](CCCCN)C(=O)NCCCCN [14.15] (H-K[Dab]AG[dOrn][Pro(cis-4-CF3)]HK[ΔZArg]K-{NH(CH2)4NH2}) | ++ (≤8 μg/mL) | − (>32 μg/mL) | − (>32 μg/mL) | − (>32 μg/mL) |
| C[C@H](NC(=O)[C@H](CCN)NC(=O)[C@@H](N)CCCCN)C(=O)NCC(=O)N[C@H](CCCN)C(=O)N1C[C@H](N)C[C@H]1C(=O)N[C@@H](Cc1cnc[nH]1)C(=O)N[C@@H](CCCCN)C(=O)N/C(=C\CCNC(=N)N)C(=O)N[C@@H](CCCCN)C(=O)NCCCCN [14.17] (H-K[Dab]AG[dOrn][Pro(4R-NH2)]HK[ΔZArg]K-{NH(CH2)4NH2}) | ++ (≤8 μg/mL) | − (>32 μg/mL) | − (>32 μg/mL) | − (>32 μg/mL) |
| C[C@H](NC(=O)[C@H](CCN)NC(=O)[C@@H](N)CCCCN)C(=O)NCC(=O)N[C@H](CCCN)C(=O)N1C2CCCCC2C[C@H]1C(=O)N[C@@H](Cc1cnc[nH]1)C(=O)N[C@@H](CCCCN)C(=O)N/C(=C\CCNC(=N)N)C(=O)N[C@@H](CCCCN)C(=O)NCCCCN (stereo partly drawn) [14.19] (H-K[Dab]AG[dOrn][Oic(3aξ,7aξ)]HK[ΔZArg]K-{NH(CH2)4NH2}) | ++ (≤8 μg/mL) | − (>32 μg/mL) | − (>32 μg/mL) | − (>32 μg/mL) |
| C[C@H](NC(=O)[C@H](CCN)NC(=O)[C@@H](N)CCCCN)C(=O)NCC(=O)N[C@H](CCCN)C(=O)N1CCC[C@H]1C(=O)N[C@@H](Cc1cnc[nH]1)C(=O)N[C@@H](CCCCN)C(=O)N/C(=C\CCNC(=N)N)C(=O)NCCCCCN [14.20] (H-K[Dab]AG[dOrn]PHK[ΔZArg]-{NH(CH2)5NH2}) | + (≤32 μg/mL) | − (>32 μg/mL) | − (>32 μg/mL) | − (>32 μg/mL) |
| C[C@H](NC(=O)[C@H](CCN)NC(=O)[C@@H](N)CCCCN)C(=O)NCC(=O)N[C@H](CCCN)C(=O)N1CCC[C@H]1C(=O)N[C@@H](Cc1cnc[nH]1)C(=O)N[C@@H](CCCCN)C(=O)N/C(=C\CCNC(=N)N)C(=O)N[C@@H](CCCCN)C(=O)O [14.21] (H-K[Dab]AG[dOrn]PHK[ΔZArg]K-OH) | + (≤32 μg/mL) | − (>32 μg/mL) | − (>32 μg/mL) | − (>32 μg/mL) |
| C[C@H](NC(=O)/C(=C/CCNC(=N)N)NC(=O)[C@H](CCCCN)NC(=O)[C@H](Cc1cnc[nH]1)NC(=O)[C@@H]1CCCN1C(=O)[C@@H](CCCN)NC(=O)CNC(=O)[C@H](C)NC(=O)[C@H](CCN)NC(=O)[C@@H](N)CCCCN)C(=O)NCCCCN [14.23] (H-K[Dab]AG[dOrn]PHK[ΔZArg]A-{NH(CH2)4NH2}) | + (≤32 μg/mL) | − (>32 μg/mL) | − (>32 μg/mL) | − (>32 μg/mL) |
| C[C@H](NC(=O)[C@H](CCN)NC(=O)[C@@H](N)CCCCN)C(=O)NCC(=O)N[C@H](CCCN)C(=O)N1CCC[C@H]1C(=O)N[C@@H](Cc1cnc[nH]1)C(=O)N[C@@H](CCCCN)C(=O)N[C@H](CCCNC(=N)N)C(=O)N[C@@H](CCCCN)C(=O)NCCCCN [14.24] (H-K[Dab]AG[dOrn]PHK[dR]K-{NH(CH2)4NH2}) | + (≤32 μg/mL) | − (>32 μg/mL) | − (>32 μg/mL) | − (>32 μg/mL) |
| C[C@H](O)[C@H](NC(=O)[C@H](CCN)NC(=O)[C@@H](N)CCCCN)C(=O)NCC(=O)N[C@H](CCCN)C(=O)N1CCC[C@H]1C(=O)N[C@@H](Cc1cnc[nH]1)C(=O)N[C@@H](CCCCN)C(=O)N/C(=C\CCNC(=N)N)C(=O)N[C@@H](CCCCN)C(=O)NCCCCN [15.1] (H-K[Dab][aThr]G[dOrn]PHK[ΔZArg]K-{NH(CH2)4NH2}) | + (≤32 μg/mL) | − (>32 μg/mL) | − (>32 μg/mL) | − (>32 μg/mL) |
| C[C@@H](O)[C@H](NC(=O)[C@H](CCN)NC(=O)[C@@H](N)CCCCN)C(=O)NCC(=O)N[C@H](CCCN)C(=O)N1CCC[C@H]1C(=O)N[C@@H](Cc1cnc[nH]1)C(=O)N[C@@H](CCCCN)C(=O)N/C(=C\CCNC(=N)N)C(=O)N[C@@H](CCCCN)C(=O)NCCCCN [15.3] (H-K[Dab]TG[dOrn]PHK[ΔZArg]K-{NH(CH2)4NH2}) | ++ (≤8 μg/mL) | − (>32 μg/mL) | − (>32 μg/mL) | − (>32 μg/mL) |
| N=C(N)NCC/C=C(\NC(=O)[C@H](CCCCN)NC(=O)[C@H](Cc1cnc[nH]1)NC(=O)[C@@H]1CCCN1C(=O)[C@@H](CCCN)NC(=O)CNC(=O)[C@H](CO)NC(=O)[C@H](CCN)NC(=O)[C@@H](N)CCCCN)C(=O)N[C@@H](CCCCN)C(=O)NCCCCN [16.1] (H-K[Dab]SG[dOrn]PHK[ΔZArg]K-{NH(CH2)4NH2}) | ++ (≤8 μg/mL) | − (>32 μg/mL) | − (>32 μg/mL) | − (>32 μg/mL) |

Second part, the compound after the results:

| Sa: MIC Staphylococcus aureus ATCC 13709 [1] | Ec: MIC Escherichia coli ATCC 25922 [2] | Pa: MIC Pseudomonas aeruginosa ATCC 27853 [3] | Ab: MIC Acinetobacter baumannii ATCC 19606 [4] | Compound |
| --- | --- | --- | --- | --- |
| ++ (≤8 μg/mL) | − (>32 μg/mL) | − (>32 μg/mL) | − (>32 μg/mL) | C[C@H](NC(=O)[C@H](CCN)NC(=O)[C@@H](N)CCCCN)C(=O)NCC(=O)N[C@H](CCCN)C(=O)N1CCC[C@H]1C(=O)N[C@@H](Cc1cnc[nH]1)C(=O)N[C@@H](CCCCN)C(=O)N/C(=C\CCNC(=N)N)C(=O)N[C@H](CCCCN)C(=O)NCCCCN [14.11] (H-K[Dab]AG[dOrn]PHK[ΔZArg][dK]-{NH(CH2)4NH2}) |
| ++ (≤8 μg/mL) | + (≤32 μg/mL) | − (>32 μg/mL) | − (>32 μg/mL) | C[C@H](NC(=O)[C@H](CCN)NC(=O)[C@@H](N)CCCCN)C(=O)NCC(=O)N[C@H](CCCN)C(=O)N1CCCC[C@H]1C(=O)N[C@@H](Cc1cnc[nH]1)C(=O)N[C@@H](CCCCN)C(=O)N/C(=C\CCNC(=N)N)C(=O)N[C@@H](CCCCN)C(=O)NCCCCN [14.13] (H-K[Dab]AG[dOrn][Pip]HK[ΔZArg]K-{NH(CH2)4NH2}) |
| ++ (≤8 μg/mL) | − (>32 μg/mL) | − (>32 μg/mL) | − (>32 μg/mL) | C[C@H](NC(=O)[C@H](CCN)NC(=O)[C@@H](N)CCCN)C(=O)NCC(=O)N[C@H](CCCN)C(=O)N1CCC[C@H]1C(=O)N[C@@H](Cc1cnc[nH]1)C(=O)N[C@@H](CCCCN)C(=O)N/C(=C\CCNC(=N)N)C(=O)N[C@@H](CCCCN)C(=O)NCCCCN [14.16] (H-[Orn][Dab]AG[dOrn]PHK[ΔZArg]K-{NH(CH2)4NH2}) |
| ++ (≤8 μg/mL) | − (>32 μg/mL) | − (>32 μg/mL) | − (>32 μg/mL) | C[C@H](NC(=O)[C@H](CCN)NC(=O)[C@@H](N)CCCCN)C(=O)NCC(=O)N[C@H](CCCN)C(=O)N1CCC1C(=O)N[C@@H](Cc1cnc[nH]1)C(=O)N[C@@H](CCCCN)C(=O)N/C(=C\CCNC(=N)N)C(=O)N[C@@H](CCCCN)C(=O)NCCCCN (stereo partly drawn) [14.18] (H-K[Dab]AG[dOrn][ξAze]HK[ΔZArg]K-{NH(CH2)4NH2}) |
| + (≤32 μg/mL) | − (>32 μg/mL) | − (>32 μg/mL) | − (>32 μg/mL) | C[C@H](NC(=O)[C@H](CCN)NC(=O)[C@H](N)CCCCN)C(=O)NCC(=O)N[C@H](CCCN)C(=O)N1CCC[C@H]1C(=O)N[C@@H](Cc1cnc[nH]1)C(=O)N[C@@H](CCCCN)C(=O)N/C(=C\CCNC(=N)N)C(=O)N[C@@H](CCCCN)C(=O)NCCCCN [14.22] (H-[dK][Dab]AG[dOrn]PHK[ΔZArg]K-{NH(CH2)4NH2}) |
| + (≤32 μg/mL) | − (>32 μg/mL) | − (>32 μg/mL) | − (>32 μg/mL) | C[C@H](NC(=O)[C@H](CCN)NC(=O)[C@@H](N)CCN)C(=O)NCC(=O)N[C@H](CCCN)C(=O)N1CCC[C@H]1C(=O)N[C@@H](Cc1cnc[nH]1)C(=O)N[C@@H](CCCCN)C(=O)N/C(=C\CCNC(=N)N)C(=O)N[C@@H](CCCCN)C(=O)NCCCCN [14.25] (H-[Dab][Dab]AG[dOrn]PHK[ΔZArg]K-{NH(CH2)4NH2}) |

From patent US10626144B2, “Peptide derivatives and uses thereof” (Nosopharm, priority 2014, dated 2020)
